Assay results from ChEMBL document CHEMBL5154723 (Bioorg Med Chem, 2022).

Experiment: Inhibition of Influenza A virus H5N1 neuraminidase

Structure (SMILES) | IC50 [nM]
O=C(CSc1nnc(-c2ccc(F)cc2)o1)NCc1ccc(Cl)c(Cl)c1 | 450
COc1cccc(CCNC(=O)CSc2nnc(-c3ccccc3)o2)c1 | 260
O=C(CSc1nnc(-c2ccccc2)o1)NCc1ccc(Cl)c(Cl)c1 | 130
Cc1cc([N+](=O)[O-])ccc1NC(=O)CSc1nnc(COc2ccc3ccccc3c2)o1 | 6150
Cc1ccc(-c2nnc(SCC(=O)NCc3ccc(Cl)c(Cl)c3)o2)cc1 | 2050
O=C(CSc1nnc(-c2ccccc2)o1)NCCc1cccc(F)c1 | 3580
COc1ccc(-c2nnc(SCC(=O)NCc3ccc(Cl)c(Cl)c3)o2)cc1 | 3950
COc1cccc(CCNC(=O)CSc2nnc(-c3ccc(C)cc3)o2)c1 | 150000
O=C(CSc1nnc(-c2ccc(O)cc2)o1)NCc1ccc(Cl)c(Cl)c1 | 1180
O=C(CSc1nnc(-c2ccc(Cl)cc2)o1)NCc1ccc(Cl)c(Cl)c1 | 32
O=C(CSc1nnc(-c2ccc(O)cc2)o1)NCCc1cccc(F)c1 | 27
COc1cccc(CCNC(=O)CSc2nnc(-c3ccc(F)cc3)o2)c1 | 56700
COc1cccc(CCNC(=O)CSc2nnc(-c3ccc(O)cc3)o2)c1 | 360
CCC(CC)O[C@@H]1C=C(C(=O)O)C[C@H](N)[C@H]1NC(C)=O [OSELTAMIVIR CARBOXYLATE] | 82
